Data: patent US8604048B2, “Pyridocarbazole type compounds and applications thereof” (Centre National de la Recherche Scientifique, priority 2009, dated 2013)

Experiments:
[1] = system: actin network of HeLa cells; assay: Stability of the actin network to a depolymerization induced by latrunculin B; assay type: cell-based, Human
Procedure: 7. a step of analysis of the effect of the compound to be tested on the actin network, via incubation of HeLa cells with the compound to be tested. […] When the actin network is stabilized, the latrunculin-induced depolymerization of the actin network is limited.
The cells are grown on glass coverslips and incubated as for the tubulin staining. After elimination of the medium, the cells are washed with warm PBS then fixed, by addition of a solution of PBS/3.7% formaldehyde for 30 minutes at 37° C. The cells are washed with PBS then permeabilized with a solution of PBS/0.2% Triton X100 for 15 minutes at room temperature. After another washing with PBS, the cells are incubated with a solution of PBS/1% BSA for 30 minutes at room temperature. The cells are then incubated with phalloidin (0.165 μM final concentration) labelled with Alexa Fluor® 488 (Molecular Probes, Invitrogen) for 20 minutes at room temperature. The cells are washed a final time with PBS then dehydrated with pure ethanol. Finally, the cells are fixed to slides using a Fluorsave™ mounting solution.
8) Test for the Action on the Actin Cytoskeleton: Protocol for Evaluating, in Cells, the Stability of the Actin Network to a Depolymerization Induced by Latrunculin B
3 days before the experiment, glass coverslips are deposited under sterile conditions in 24-well microplates. In each well, HeLa cells (15 000 cells per well) in the exponential growth phase are seeded in 500 μl of RPMI medium.
PBS (phosphate buffered saline, ref. P4417, Sigma), PBS/1% BSA (bovine serum albumin, Ref. A3059, Sigma), aliquots of 15 ml, stored at −20° C.; PBS/0.2% Triton X100 (Ref. T8787, Sigma); PBS/0.01% Tween® 20 (Ref. P9916, Sigma); PBS/0.3% BSA/0.02% NaN3 (Ref. for the NaN3: 6688, Merck), aliquots of 15 ml stored at −20° C. Phalloidin A488, (Ref. A12379, Invitrogen). L4: rabbit anti-detyrosinated-tubulin polyclonal antibody (cf. Fonrose et al., Cancer Res., […], 67:3371-3378). Anti-rabbit antibody coupled to Cyanine 3 (Ref. 111.165.144, Jackson Laboratories). […]

[2] = system: LIMK1 activity in HeLa cells; assay: Cellular LIMK1 activity assay (Ser3-cofilin phosphorylation, western blot); assay type: cell-based, Human; details: for Inhibition of Ser3-cofilin phosphorylation in HeLa cells: 2 h, indicated concentrations
Procedure: HeLa cells were treated by compounds (or equivalent amount of DMSO as control) at indicated concentrations and time. Whole cell extracts were prepared using RIPA buffer (50 mM Tris-HCl pH=7.4, 150 mM NaCl, 1% NP-40, 0.5% sodium deoxycholate, 1% SDS, 1 mM EGTA, 1 mM EDTA, 5% glycerol, 1 mM DTT) supplemented with protease inhibitors (Sigma, P8340) and phosphatase inhibitors (Sigma, P5726). About thirty micrograms of proteins were loaded and migrated through a 12% SDS-PAGE. After electro-transfer, the nitrocellulose membrane was saturated with PBS, 0.1% Tween® 20, 5% Bovin Serum Albumin. Amount and phosphorylation status of cofilin were estimated using the polyclonal antibodies anti-cofilin (Cytoskeleton, #ACFLO2) and anti-phosphocofilin (Ser3) (Cell Signaling, #3311). Goat anti-rabbit IgG-HorseRadish Peroxidase conjugated (Biosource, #ALI0404) was used as secondary antibody. Detection was performed using ECL plus western blotting detection system (GE Healthcare).
HeLa cells were treated by 25 μM Compound 1 (H06) for 2 h (lane 2). Culture medium was then discarded and fresh medium (RPMI) was added. At different times after RPMI addition (lane 3, 30 minutes; lane 4, 1 hour; lane 5, 1.5 hour; lane 6, 2 hours; lane 7, 4 hours), amount and phosphorylation status of cofilin were determined as described in Example 2. The lane 1 corresponds to time “0”, i.e. a cell extract of cells that have not been treated with Compound 1.
HeLa cells were treated by indicated concentrations of Compound 1 (or ellipticine as negative control) for 2 h.
Amount and phosphorylation status of cofilin were determined as described in Example 2. In vitro phosphorylated cofilin (left) was used as control.
HeLa cells were treated by 25 μM of Compound 1 for indicated time. Amount and phosphorylation status of cofilin were determined as described in Example 2.

Row | SMILES | Protection of the actin network from depolymerization by latrunculin B ([1]; HeLa cells, confocal microscope) | Reversibility of inhibition of Ser3-cofilin phosphorylation in HeLa cells ([2]; 25 μM for 2 h, then replaced by RPMI medium) | Inhibition of Ser3-cofilin phosphorylation in HeLa cells [2] | Treatment time after which the inhibitory effect on cofilin phosphorylation is detected ([2]; HeLa, 25 μM) [min] | Effect on the stabilization of actin microfilaments ([1]; general statement)
1 | Cc1c2cc[nH]c(=O)c2c(C)c2c1[nH]c1ccc(OC(=O)c3ccccc3)cc12 [Compound 1, 9-benzoyloxy-5,11-dimethyl-2H,6H-pyrido[4,3-b]carbazol-1-one] | protects the actin network | phospho-cofilin is synthesized again | clearly inhibits the formation of phospho-cofilin, in a dose-dependent manner | 30 | 
2 | Cc1c2ccncc2c(C)c2c1[nH]c1ccccc12 [ellipticine] |  |  | does not avoid the phosphorylation of cofilin |  | does not have any effect
